Reference: ChEMBL document CHEMBL1201862, “PubChem BioAssay data set” (2004)
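Following 48 hours of exposure in 96-well plates, responses at five concentrations were used to interpolate endpoints linearly. GI50 = concentration required for 50% inhibition of growth.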 The source made the active and inactive calls. Rule as the data show it: active = GI50 up to about 1.1 µM and inactive = higher.

Tests used:
Assay in all cases: inhibition of tumour cell growth, NCI panel, 48 h
A549 = test system: A549
NCI-H226 = test system: NCI-H226
OVCAR-5 = test system: OVCAR-5
OVCAR-8 = test system: OVCAR-8
SK-MEL-2 = test system: SK-MEL-2
SF-539 = test system: SF-539
SNB-19 = test system: SNB-19
SR = test system: SR
OVCAR-3 = test system: OVCAR-3
NCI-H460 = test system: NCI-H460
Hs-578T = test system: Hs-578T
CCRF-CEM = test system: CCRF-CEM
ACHN = test system: ACHN
OVCAR-4 = test system: OVCAR-4
UACC-62 = test system: UACC-62
MDA-N = test system: MDA-N
786-0 = test system: 786-0
EKVX = test system: EKVX
LOX IMVI = test system: LOX IMVI
CAKI-1 = test system: CAKI-1

Measured: GI50

O=C1c2ccccc2CCC1C(O)(C(F)(F)F)C(F)(F)F (stereo not given)
inactive: A549 > 100 µM | NCI-H226 > 100 µM | OVCAR-5 > 100 µM | OVCAR-8 > 100 µM | SK-MEL-2 27.5 µM | SF-539 > 100 µM | SNB-19 > 100 µM | SR > 100 µM | OVCAR-3 > 100 µM | NCI-H460 > 100 µM | Hs-578T > 100 µM | CCRF-CEM > 100 µM | ACHN > 100 µM | OVCAR-4 > 100 µM | UACC-62 > 100 µM | MDA-N > 100 µM | 786-0 > 100 µM | EKVX > 100 µM | LOX IMVI > 100 µM | CAKI-1 > 100 µM

Cc1nc2sc(CCl)nn2c(=O)c1Cl
inactive: A549 15.1 µM | NCI-H226 14.9 µM | OVCAR-5 15.1 µM | OVCAR-8 14 µM | SK-MEL-2 11.1 µM | SF-539 16.7 µM | SNB-19 16.3 µM | SR 4.61 µM | OVCAR-3 15.9 µM | NCI-H460 10.6 µM | Hs-578T 19.1 µM | CCRF-CEM 3.61 µM | ACHN 15.7 µM | OVCAR-4 15.7 µM | UACC-62 14 µM | MDA-N 11.4 µM | 786-0 10.6 µM | EKVX 11.1 µM | LOX IMVI 1.92 µM | CAKI-1 11.2 µM

CC1(C)CCC[C@@]2(C)C1CC[C@@]1(CO1)[C@@H]2/C=C\C(C=O)CC=O (stereo not given in full)
inactive: A549 > 100 µM | NCI-H226 > 100 µM | OVCAR-5 > 100 µM | OVCAR-8 > 100 µM | SK-MEL-2 > 100 µM | SF-539 > 87.3 µM | SNB-19 > 100 µM | SR 37.6 µM | OVCAR-3 > 100 µM | NCI-H460 > 100 µM | Hs-578T > 100 µM | CCRF-CEM 17.3 µM | ACHN > 100 µM | OVCAR-4 > 100 µM | UACC-62 > 100 µM | MDA-N > 87.9 µM | 786-0 > 75.3 µM | EKVX > 100 µM | LOX IMVI > 67.1 µM | CAKI-1 > 100 µM

C#CCNC(Cc1c[nH]cn1)C(=O)O (stereo not given)
inactive: A549 > 100 µM | NCI-H226 > 100 µM | OVCAR-5 > 100 µM | OVCAR-8 > 100 µM | SK-MEL-2 > 100 µM | SF-539 > 100 µM | SNB-19 > 100 µM | SR > 100 µM | OVCAR-3 > 100 µM | NCI-H460 > 100 µM | Hs-578T > 100 µM | CCRF-CEM > 100 µM | ACHN > 100 µM | OVCAR-4 > 100 µM | UACC-62 > 100 µM | MDA-N > 100 µM | 786-0 > 100 µM | EKVX > 100 µM | LOX IMVI > 100 µM | CAKI-1 > 100 µM

CC(=O)NNc1nc(C)c(C(=O)NNC(=O)C(=O)Nc2nc3ccc([N+](=O)[O-])cc3s2)s1
inactive: A549 67.1 µM | NCI-H226 80 µM | OVCAR-5 82.8 µM | OVCAR-8 52.7 µM | SK-MEL-2 56.9 µM | SF-539 44.7 µM | SNB-19 81.7 µM | SR 26.4 µM | OVCAR-3 15.3 µM | NCI-H460 49 µM | Hs-578T 51.6 µM | CCRF-CEM 22 µM | ACHN 50.4 µM | OVCAR-4 46.7 µM | UACC-62 51.6 µM | MDA-N 45.9 µM | 786-0 61.5 µM | EKVX 30.7 µM | LOX IMVI 54.1 µM | CAKI-1 30.5 µM

COc1ccc(C#CC(=O)O)c(OC)c1
inactive: A549 > 100 µM | NCI-H226 > 100 µM | OVCAR-5 > 100 µM | OVCAR-8 > 100 µM | SK-MEL-2 > 100 µM | SF-539 > 100 µM | SNB-19 > 100 µM | SR > 100 µM | OVCAR-3 > 100 µM | NCI-H460 > 100 µM | Hs-578T > 100 µM | CCRF-CEM > 100 µM | ACHN > 100 µM | OVCAR-4 > 100 µM | UACC-62 > 100 µM | MDA-N > 100 µM | 786-0 > 100 µM | EKVX > 100 µM | LOX IMVI > 100 µM | CAKI-1 > 100 µM

CS(=O)(=O)OCCCCOS(=O)(=O)CF
inactive: A549 > 100 µM | NCI-H226 > 100 µM | OVCAR-5 > 100 µM | OVCAR-8 > 100 µM | SK-MEL-2 > 100 µM | SF-539 > 100 µM | SNB-19 > 100 µM | SR > 73.3 µM | OVCAR-3 > 100 µM | NCI-H460 56 µM | Hs-578T > 100 µM | CCRF-CEM 52.4 µM | ACHN 52.6 µM | OVCAR-4 > 100 µM | UACC-62 > 100 µM | MDA-N > 100 µM | 786-0 > 100 µM | EKVX > 100 µM | LOX IMVI > 100 µM | CAKI-1 > 72.1 µM
